{
  "source": "patent US12485105B2",
  "about": "“Composition for suppressing obesity” (DAICEL CORPORATION, priority 2019, dated 2025)",
  "key": {"C57BL/6 male mice [1]": {"system": "C57BL/6 male mice", "assay": "Body weight and adipose tissue fat weights of mice fed normal or high-fat diet with 8PN for 8 weeks", "type": "in vivo", "details": "for increase in the fat weight of the subcutaneous adipose tissue: vs Group 4, FIG. 2; for increase in the fat weight of the brown adipose tissue: vs Group 4, FIG. 3; for increase in the fat weight of the mesenteric adipose tissue: vs Group 4, FIG. 4; for increase in the fat weight of the perirenal adipose tissue: vs Group 4, FIG. 5; for increase in the fat weight of the epididymal adipose tissue: vs Group 4, FIG. 6; for increase in the fat weight of the white adipose tissue: vs Group 4, total of adipose tissue other than brown, FIG. 7", "description": "(§1) C57BL/6 male mice (available from Japan SLC, Inc.) were arranged into the following six groups of six mice each. Note that, 8-prenylnaringenin (may be described herein as 8PN) was used as the prenylflavonoid of the present embodiment. • (Group 1) Group that ingested a normal diet without the addition of 8PN • (Group 2) Group that ingested a normal diet with the addition of 8PN (final concentration: 0.0005%) • (Group 3) Group that ingested a normal diet with the addition of 8PN (final concentration: 0.005%) • (Group 4) Group that ingested a high-fat diet without the addition of 8PN • (Group 5) Group that ingested a high-fat diet with the addition of 8PN (final concentration: 0.0005%) • (Group 6) Group that ingested a high-fat diet with the addition of 8PN addition (final concentration: 0.005%)\n(§2) AIN-93M feed was used as the normal diet (control diet), and AIN-93M feed containing 30% lard was used as the high-fat diet. These feeds were mixed with 8PN for Group 2, Group 3, Group 5 and Group 6.\n(§3) The mice were each raised in individual cages, were allowed to freely consume each feed and deionized water, and were raised for 8 weeks. The rearing environment included a temperature of 22±2° C., humidity without artificial control, and light-dark cycles alternated every 12 hours. After 8 weeks, the mice were slaughtered by drawing blood from the heart under co-anesthesia of sevoflurane and somnopentyl, after which each mouse was weighed to measure the body weight. Next, subcutaneous adipose tissue, brown adipose tissue, mesenteric adipose tissue, perirenal adipose tissue, and epididymal adipose tissue were extracted from each mouse, and the fat weight in each tissue was measured by weighing with a scale. The total weight of adipose tissue other than the brown adipose tissue was calculated as the weight of white adipose tissue from the extracted fat."}, "C57BL/6 male mice [2]": {"system": "C57BL/6 male mice", "assay": "Plasma glucose, cholesterol and insulin of mice fed high-fat diet with 8PN", "type": "in vivo", "details": "8 weeks; for increase in the blood concentration of glucose: vs Group 4, FIG. 8; for increase in the blood concentration of cholesterol: vs Group 4, FIG. 9; for increase in the blood concentration of insulin: vs Group 4, FIG. 10", "description": "as §1, §2, §3\nExample 2 was carried out in the same manner as Example 1 up to the slaughtering of the mice. Blood was drawn from each mouse at the time of slaughtering and was centrifuged at 5000 rpm for 10 minutes, and plasma was obtained from the supernatant. The amount of glucose was measured using the Glucose CII Test Wako Kit (available from Fujifilm Wako Pure Chemical Corporation), and the amount of insulin was measured using the LBIS (trade name) Mouse Insulin ELISA Kit (RTU) (available from Fujifilm Wako Pure Chemical Corporation). In addition, the amount of cholesterol was measured using the LabAssay Cholesterol Kit (available from Fujifilm Wako Pure Chemical Corporation)."}, "C57BL/6 male mice [3]": {"system": "C57BL/6 male mice", "assay": "Thigh muscle weight of mice fed normal or high-fat diet with 8PN", "type": "in vivo", "details": "8 weeks, p<0.05, FIG. 11", "description": "as §1, §2, §3\nExample 3 was implemented in the same manner as Example 1 up to the slaughtering of the mice. At the time of the slaughtering, the thigh muscles were removed from each mouse, and the weight of each muscle was measured by weighing with a scale."}, "[4]": {"biological_target": "T1, pig-derived pancreatic lipase II (Sus scrofa, UniProt P00591)", "T1 construct": "purchased Sigma", "T1 sequence (P00591 1-450)": "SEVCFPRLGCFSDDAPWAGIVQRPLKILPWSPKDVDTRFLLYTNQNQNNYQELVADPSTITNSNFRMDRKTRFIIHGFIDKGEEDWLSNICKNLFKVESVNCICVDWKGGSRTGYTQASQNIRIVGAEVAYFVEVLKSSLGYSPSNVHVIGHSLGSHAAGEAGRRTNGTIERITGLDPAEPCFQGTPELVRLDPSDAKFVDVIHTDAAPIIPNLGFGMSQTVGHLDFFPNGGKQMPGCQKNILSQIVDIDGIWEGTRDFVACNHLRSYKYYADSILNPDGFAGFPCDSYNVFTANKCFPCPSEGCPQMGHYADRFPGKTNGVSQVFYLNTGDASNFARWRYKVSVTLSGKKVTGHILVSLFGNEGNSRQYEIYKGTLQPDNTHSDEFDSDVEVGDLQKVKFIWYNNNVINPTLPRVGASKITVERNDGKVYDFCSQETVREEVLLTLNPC", "assay": "Pancreatic lipase activity inhibition (triolein substrate, free fatty acids by NEFA C-Test)", "type": "biochemical", "details": "8PN final concentration 1.0, 2.0, 4.0, 7.0 or 10.0 mg/mL; 37° C., 30 minutes; FIG. 12", "protocol": "An enzyme solution was prepared by dissolving pig-derived pancreatic lipase II (available from Sigma) in a 100 mM Tris-HCl buffer solution (pH 7.0) to make a final concentration of 250 μg/mL. In addition, 80 mg of triolein, 10 mg of lecithin, and 5 mg of sodium cholate were dissolved in 9 mL of a 100 mM tris-HCl buffer solution (pH 7.0), and the mixture was subjected to ultrasonic treatment for 10 minutes to prepare a substrate solution that was a homogeneous suspension. […] The reaction was stopped by a heating treatment at 100° C. for 2 minutes, and the amount of free fatty acids was measured through absorbance at a wavelength of 550 nm using the NEFA C-Test Wako Kit (available from Fujifilm Wako Pure Chemical Corporation). […]\nAlso note that a control was prepared in the same manner as described above with the exception that DMSO was used instead of 8PN. […] The lipase activity inhibition rate was calculated by the following calculation equation (1). Lipase activity inhibition rate (%)={1−((B−A)/(C−A))}×100 (1) • A: Absorbance of blank • B: Absorbance of test reaction solution • C: Absorbance of control"}, "[5]": {"details": "reported, Non-Patent Document 1; cited from earlier work"}, "[6]": {"details": "reported, Patent Document 1; cited from earlier work"}, "[7]": {"details": "reported, Patent Document 2; cited from earlier work"}, "3T3-L1 cells": {"system": "3T3-L1 cells", "details": "reported, Non-Patent Document 2; cited from earlier work"}, "rats": {"system": "rats", "details": "administration to rats; reported, Non-Patent Document 3; cited from earlier work"}, "SREBP": {"system": "SREBP", "details": "in rats; reported, Non-Patent Document 4; cited from earlier work"}, "[8]": {"details": "Group 5: high-fat diet with 8PN 0.0005%"}, "[9]": {"details": "Group 6: high-fat diet with 8PN 0.005%"}},
  "data": [
    {"compound": "CC(C)=CCc1c(O)cc(O)c2c1O[C@H](c1ccc(O)cc1)CC2=O", "note": "[8PN, 8-prenylnaringenin]", "values": [
      {"measurement": "increase in body weight", "setting": "C57BL/6 male mice [1]; Group 5: high-fat diet with 8PN 0.0005%, vs Group 4 (high-fat diet without 8PN), FIG. 1", "value": "suppressed"},
      {"measurement": "increase in the fat weight of the subcutaneous adipose tissue", "setting": "C57BL/6 male mice [1]; [8]", "value": "suppressed"},
      {"measurement": "increase in the fat weight of the brown adipose tissue", "setting": "C57BL/6 male mice [1]; [8]", "value": "suppressed"},
      {"measurement": "increase in the fat weight of the mesenteric adipose tissue", "setting": "C57BL/6 male mice [1]; [8]", "value": "suppressed"},
      {"measurement": "increase in the fat weight of the perirenal adipose tissue", "setting": "C57BL/6 male mice [1]; [8]", "value": "suppressed"},
      {"measurement": "increase in the fat weight of the epididymal adipose tissue", "setting": "C57BL/6 male mice [1]; [8]", "value": "suppressed"},
      {"measurement": "increase in the fat weight of the white adipose tissue", "setting": "C57BL/6 male mice [1]; [8]", "value": "suppressed"},
      {"measurement": "increase in body weight", "setting": "C57BL/6 male mice [1]; Group 6: high-fat diet with 8PN 0.005%, vs Group 4, FIG. 1", "value": "suppressed"},
      {"measurement": "increase in the fat weight of the subcutaneous adipose tissue", "setting": "C57BL/6 male mice [1]; [9]", "value": "suppressed"},
      {"measurement": "increase in the fat weight of the brown adipose tissue", "setting": "C57BL/6 male mice [1]; [9]", "value": "suppressed"},
      {"measurement": "increase in the fat weight of the mesenteric adipose tissue", "setting": "C57BL/6 male mice [1]; [9]", "value": "suppressed"},
      {"measurement": "increase in the fat weight of the perirenal adipose tissue", "setting": "C57BL/6 male mice [1]; [9]", "value": "suppressed"},
      {"measurement": "increase in the fat weight of the epididymal adipose tissue", "setting": "C57BL/6 male mice [1]; [9]", "value": "suppressed"},
      {"measurement": "increase in the fat weight of the white adipose tissue", "setting": "C57BL/6 male mice [1]; [9]", "value": "suppressed"},
      {"measurement": "increase in the blood concentration of glucose", "setting": "C57BL/6 male mice [2]; [8]", "value": "suppressed"},
      {"measurement": "increase in the blood concentration of cholesterol", "setting": "C57BL/6 male mice [2]; [8]", "value": "suppressed"},
      {"measurement": "increase in the blood concentration of insulin", "setting": "C57BL/6 male mice [2]; [8]", "value": "suppressed"},
      {"measurement": "increase in the blood concentration of glucose", "setting": "C57BL/6 male mice [2]; [9]", "value": "suppressed"},
      {"measurement": "increase in the blood concentration of cholesterol", "setting": "C57BL/6 male mice [2]; [9]", "value": "suppressed"},
      {"measurement": "increase in the blood concentration of insulin", "setting": "C57BL/6 male mice [2]; [9]", "value": "suppressed"},
      {"measurement": "weight of the thigh muscle", "setting": "C57BL/6 male mice [3]; Group 2: normal diet with 8PN 0.0005%, vs Group 1 (normal diet without 8PN)", "value": "increased"},
      {"measurement": "weight of the thigh muscle", "setting": "C57BL/6 male mice [3]; Group 3: normal diet with 8PN 0.005%, vs Group 1", "value": "increased"},
      {"measurement": "weight of the thigh muscle", "setting": "C57BL/6 male mice [3]; Group 5: high-fat diet with 8PN 0.0005%, vs Group 4", "value": "increased"},
      {"measurement": "weight of the thigh muscle", "setting": "C57BL/6 male mice [3]; Group 6: high-fat diet with 8PN 0.005%, vs Group 4", "value": "increased"},
      {"measurement": "lipase activity inhibition rate", "setting": "[4]", "value": "increased in a manner dependent on the concentration of 8PN"},
      {"measurement": "estrogen activity", "setting": "[5]", "value": "exhibits"},
      {"measurement": "angiogenesis inhibition", "setting": "[6]", "value": "exhibits"},
      {"measurement": "suppression of muscle disuse atrophy", "setting": "[7]", "value": "exhibits"}
    ]},
    {"compound": "COc1cc(O)c(CC=C(C)C)c(O)c1C(=O)/C=C/c1ccc(O)cc1", "note": "[xanthohumol]", "values": [
      {"measurement": "differentiation of 3T3-L1 cells", "setting": "3T3-L1 cells", "value": "has an effect of suppressing"},
      {"measurement": "lipid synthesis", "setting": "3T3-L1 cells", "value": "an effect of suppressing"},
      {"measurement": "weight gain", "setting": "rats", "value": "suppressed"},
      {"measurement": "SREBP activation and lipid synthesis", "setting": "SREBP", "value": "suppresses"}
    ]}
  ]
}
